Test results published in PMC6667648 (Frontiers in Microbiology, 2019).
Converted amounts (≈) assume the structure as drawn. Where a SMILES comes first, the peptide text is derived from it. Bridges are numbered along the chain shown (N, C = ends).

Legend:
[1] = system: murine L929 fibroblast cells; assay: Fibroblast cytotoxicity, bioluminescence; type: cell-based; settings: 64 μg/mL (maximum concentration evaluated), 24 h incubation
Procedure: (§1) Non-invasive real-time evaluation of viability, mammalian, and bacterial cells, was performed using bioluminescent human keratinocytes (HaCaT, AddexBio, San Diego, CA) and murine L929 fibroblast cells (ATCC, Manassas, VA). The bioluminescent variants were constructed by transfection with a luciferase gene (RediFect Red-Fluc-Puromycin, Catalog #CL596002) (Hamblin et al., [2003]). […] Each concentration was performed in triplicate. Bioluminescence imaging was performed at pre-specified times (0, 15, and 30 min and 1, 3, 5, 8, and 24 h) and compared to concurrently run vehicle-controls. The 96-well plate was positioned on the stage (12.5-cm field of view) within the in vivo Imaging System (IVIS) imaging system (Caliper Life Sciences, Inc., Hopkinton, MA, USA), with an open emission filter, binning of 4, and f-stop 1, and a 1-min exposure time. The resultant photons emitted from the live cells were quantified using Living Image® software (version 4.3, Caliper Life Sciences, Inc.). Monitoring bioluminescence allows assessment of the kinetics of cellular viability as there is a tight correlation between photon count imaging and viable counts (Kadurugamuwa et al., [2003]).

[2] = system: MRSA ATCC 33592; assay: microbe, parasite or virus in culture; type: cell-based, Staphylococcus aureus; settings: MRSA ATCC 33592; 24-h incubation; mean of 3 replicates from 2 independent experiments
Procedure: (§2) Strains were obtained from American Type Culture Collection (ATCC, Manassas, VA) or the clinical isolate collection at Trideum Biosciences (Frederick, MD, USA). Bioluminescence strains of P. aeruginosa 19660, transfected with the Xen5 luciferase gene, and S. aureus ATCC® 49525™ (Wright), transfected with the Xen36 luciferase gene, were obtained from Perkin Elmer (Hopkinton, MA).
(§3) A single colony was aseptically picked from an agar overlay and released in 25–30 mL of pre-warmed trypticase soy broth in a culture flask. Each culture was incubated overnight in a 37°C incubator. […] Pathogen growth was measured by absorbance at 600 nm. Four replicas were included for each test agent concentration. […]

[3] = system: S. aureus 6061; assay: microbe, parasite or virus in culture; type: cell-based, Staphylococcus aureus; settings: 6061, 24 h
Procedure: as §2, §3

[4] = system: MRSA 6381; assay: microbe, parasite or virus in culture; type: cell-based, Staphylococcus aureus; settings: MRSA 6381; 24-h incubation; mean of 3 replicates from 2 independent experiments
Procedure: as §2, §3

[5] = system: E. cloacae 6054; assay: microbe, parasite or virus in culture; type: cell-based; settings: 6054, 24 h
Procedure: as §2, §3

[6] = system: C. parapsilosis Y-1763; assay: microbe, parasite or virus in culture; type: cell-based; settings: 24-h incubation, mean of 3 replicates from 2 independent experiments
Procedure: as §2, §3

[7] = system: E. cloacae 6053; assay: microbe, parasite or virus in culture; type: cell-based; settings: 6053, 24 h
Procedure: as §2, §3

[8] = system: C. parapsilosis Y-1761; assay: microbe, parasite or virus in culture; type: cell-based; settings: 24-h incubation, mean of 3 replicates from 2 independent experiments
Procedure: as §2, §3

[9] = rat plasma, 40 and 750 ng/mL, storage at −80°C, thaw at ambient temperature min 1 h, six replicates, LC-MS/MS
[10] = system: human HaCaT keratinocytes; type: cell-based; settings: 256 μg/mL
Procedure: as §1

[11] = system: S. epidermis ATCC 51625; assay: microbe, parasite or virus in culture; type: cell-based, S. epidermidis; settings: ATCC 51625, 24 h
Procedure: as §2, §3

[12] = statement in discussion
[13] = system: S. aureus ATCC 29213; assay: microbe, parasite or virus in culture; settings: S. aureus ATCC 29213, serial passaging at sub-MIC, duplicate
Text: (§4) The development of resistance was confirmed if the microorganism started growing at continuously higher concentrations. […] Evaluations were done in duplicate.

[14] = system: A. baumannii 6838; assay: microbe, parasite or virus in culture; type: cell-based, Acinetobacter baumannii; settings: 6838, 24 h
Procedure: as §2, §3

[15] = system: A. baumannii 6043; assay: microbe, parasite or virus in culture; type: cell-based, Acinetobacter baumannii; settings: A. baumannii 6043; 24-h incubation; mean of 3 replicates from 2 independent experiments
Procedure: as §2, §3

[16] = system: A. baumannii ATCC 17978; assay: microbe, parasite or virus in culture; type: cell-based, Acinetobacter baumannii; settings: A. baumannii ATCC 17978; 24-h incubation; mean of 3 replicates from 2 independent experiments
Procedure: as §2, §3

[17] = system: methicillin-resistant S. epidermidis biofilm; type: cell-based
Procedure: (§5) Biofilms (methicillin-resistant S. epidermidis, MRSE ATCC 51625 and multidrug resistant S. epidermidis MDR-SE ATCC 700578) were established following inoculation of 10^5 CFU/mL in Minimum Essential Media for 6 h or 5 days representing preformed or mature biofilm respectively, in plastic 96-well plates (Costar, Catalog #3595). […] Following test agent incubation, the media (including the planktonic cells) was removed and then the remaining biofilm treated with 50 μL 0.1% Triton X100 followed by agitating the plate on a rocker for 30 min. The biofilm was then disrupted with a 96 well replicator, the resultant mixture vortexed, samples serially diluted, plated on agar plates, and incubated overnight and CFUs subsequently counted. Three technical replicates were performed for each condition tested.

[18] = system: MDR S. epidermidis ATCC 700578 biofilm; type: cell-based; settings: CFU count
Procedure: as §5

[19] = system: P. aeruginosa ATCC 19660; assay: microbe, parasite or virus in culture; type: cell-based, Pseudomonas aeruginosa; settings: P. aeruginosa ATCC 19660; 24-h incubation; mean of 3 replicates from 2 independent experiments
Procedure: as §2, §3

[20] = system: P. aeruginosa ATCC 27853; assay: microbe, parasite or virus in culture; type: cell-based, Pseudomonas aeruginosa; settings: P. aeruginosa ATCC 27853; 24-h incubation; mean of 3 replicates from 2 independent experiments
Procedure: as §2, §3

[21] = system: P. aeruginosa 6186; assay: microbe, parasite or virus in culture; type: cell-based, Pseudomonas aeruginosa; settings: 6186, 24 h
Procedure: as §2, §3

[22] = system: Gentamicin resistant P. aeruginosa from passage 30; settings: gentamicin resistant P. aeruginosa from passage 30 (gentamicin MIC 512 μg/mL)
Text: as §4

[23] = system: clindamycin resistant S. aureus from passage 30
Text: as §4

[24] = system: mature (120 h) MRSA ATCC 1556 biofilm; type: cell-based, Staphylococcus aureus; settings: mature (120 h) MRSA biofilm, 16 h treatment, CFU count, three technical replicates

In the case of `CC[C@H](C)[C@@H]1NC(=O)CNC(=O)[C@H](CCCCN)NC(=O)[C@H](Cc2ccc(O)cc2)NC(=O)[C@@H]2CSSC[C@H](NC1=O)C(=O)N[C@@H](Cc1ccccc1)C(=O)N[C@@H](CCCCN)C(=O)N[C@@H](CCCCN)C(=O)N[C@H](C(=O)N[C@@H](CCCCN)C(N)=O)CSSC[C@H](NC(=O)[C@H](Cc1ccccc1)NC(=O)[C@@H](N)CCCNC(=N)N)C(=O)N[C@@H](Cc1c[nH]c3ccccc13)C(=O)N[C@@H](CCCCN)C(=O)N[C@@H](C(C)C)C(=O)N2` [RP557] (H-RFCWKVCYKGICFKKCK-NH2; disulfide 3-16, 7-12), the Fibroblast cell killing [1] is reported as “limited fibroblast cell killing”, the “Minimum Inhibitory Concentration (MIC)” value [2] is reported as 2.0 [4] μM and the “Minimum Inhibitory Concentration (MIC)” value [3] is reported as 4.0 [8] μM. The “Minimum Inhibitory Concentration (MIC)” value [4] was 2.0 [4] μM, the “Minimum Inhibitory Concentration (MIC)” value [5] was 4.0 [8] μM and the “Minimum Inhibitory Concentration (MIC)” value [6] was 1.0 [2] μM. The “Minimum Inhibitory Concentration (MIC)” value [7] was 4.0 [8] μM, the “Minimum Inhibitory Concentration (MIC)” value [8] was 8.0 [16] μM and the “Degradation after three freeze-thaw cycles” value [9] was “did not show signs of degradation”. The Keratinocyte cell killing ([10]; 8 h incubation) was “no cell killing observed”, the Keratinocyte viability ([10]; 8 h) was “greater than 80%” and the “Minimum Inhibitory Concentration (MIC)” value [11] was 4.0 [8] μM. For the same compound, the Water solubility [12] was “water-soluble”, the “MIC on Passage #0 and Passage #1” value [13] was 2 mg/L (≈ 0.936 µM) and the “MIC on Passage #30” value [13] was 32 mg/L (≈ 15 µM). For the same compound, the “Minimum Inhibitory Concentration (MIC)” value [14] was 4.0 [8] μM, the “Minimum Inhibitory Concentration (MIC)” value [15] was 4.0 [8] μM and the “Minimum Inhibitory Concentration (MIC)” value [16] was 8.0 [16] μM. For the same compound, the “EC90, biofilm” value [17] was 8 mg/L (≈ 3.75 µM), the “EC90, biofilm” value [18] was 8 mg/L (≈ 3.75 µM) and the “Minimum Inhibitory Concentration (MIC)” value [19] was 2.0 [4] μM. For the same compound, the “Minimum Inhibitory Concentration (MIC)” value [20] was 2.0 [4] μM, the “Minimum Inhibitory Concentration (MIC)” value [21] was 2.0 [4] μM and the MIC [22] was 4 mg/L (≈ 1.87 µM). The MIC [23] was 2 mg/L (≈ 0.936 µM) and the “EC90 (concentration to reduce biofilm by 90%)” value [24] was 2 mg/L (≈ 0.936 µM).
